Legend:
[1] = type: in vivo; settings: mouse, ip, 5 mg/kg
Experimental: (§1) All experiments were performed on 6–8 month male C57B1/6 mice (Charles River Laboratory) or eNOS(−/−) animals. Animals were injected (i.p.) at various time points before sacrifice at the doses specified. After euthanasia via CO2, plasma was collected, and cortices and hippocampi were collected after PBS perfusion and stored at −80°C. Tissue samples were weighed and extracted with methanol. Plasma samples were extracted with cold acetonitrile. Quantitative analysis of drug concentrations in plasma and brain used internal standards spiked into plasma and brain homogenates before liquid extraction with acetonitrile or methanol, and separation and measurement was performed with LC-MS/MS tandem mass spectrometry. The supernatant (deproteinized) was analyzed by chemiluminescence with SIEVERS 280i nitric oxide analyzer.
Figure S3: SERM bioavailability in plasma and CNS of WT and eNOS (-/-) mice. […] (n=4).

[2] = tested on: Ishikawa endometrial cancer cell line; assay: ER-mediated transcriptional activity (antiestrogen) in Ishikawa cells; type: cell-based; settings: read-out: antiestrogen potency IC50, ER-mediated transcriptional activity
[3] = tested on: C57Bl/6 mice or eNOS(−/−) mice; assay: Step-through passive avoidance (STPA) memory model; type: in vivo, mouse; settings: SERM 2 mg/kg; for reversal of scopolamine-induced memory deficit (STPA latency): scopolamine 1 mg/kg i.p., tested 24 h after training; for reversal of scopolamine-induced memory deficit in eNOS KO mice (STPA): scopolamine 1 mg/kg
Experimental: In this assay, memory is tested 24 h after training and since drugs are only administered during training, any side effects, such as sedation, are highly unlikely to confound the testing results. Furthermore, criteria for training are uniform across all treatment groups. Previously, we have shown NO-donors to reverse cognitive deficits induced by attenuation of cholinergic signaling, [51], [52], [53].
Amnestic memory deficit was induced by i.p. injection of either scopolamine (1 mg/kg) or L-NAME (50 mg/kg) 30 min prior to training in C57Bl/6 male mice. SERMs (2 mg/kg) were given 20 min prior to training and latency was assessed 24 h after training with animals being removed from the task if latency >300 s. All SERMs, except F-DMA, restored scopolamine-induced deficits in STPA in C57Bl/6 animals.
All experiments were performed either on 6–8 month old male C57B1/6 mice or eNOS(−/−) animals. Scopolamine (1 mg/kg) or L-NAME (50 mg/kg) were injected (i.p.) 30 min prior to training, while SERMs (2 mg/kg) were injected 20 min prior to training. Mice were placed in the light compartment of the light/dark box, and as soon as they entered the dark compartment, they received an electric shock (0.5 mA, 60 Hz for 2 seconds). This training was repeated until latency to enter the dark side reached 300 s. At 24 h post-training, animals were individually placed in the light compartment and the latency to enter the dark compartment was recorded with a 300 s cutoff. Details of this widely used assay of behavior have been discussed previously for NO-donor compounds [53], [54], [55].

[4] = NO levels (NOx) in hippocampus and plasma by chemiluminescence; type: in vivo, mouse; settings: 2 mg/kg i.p., 1 h; for elevation of NOx in hippocampus / elevation of NOx in plasma: WT mice
Experimental: Brain and plasma NO levels were assessed by measuring metabolic oxidation products, NO2 ^−and NO3 ^− (NOx), using chemiluminescence detection.
Figure 5 Effects of SERM and NO-SERMon NO levels in plasma and brain of WT and eNOS (−/−) mice. Levels of NO were assessed by measuring breakdown products 1 h after i.p. injection of SERMs (2 mg/kg) using chemiluminescence detection.
as §1

ERα = target: T1, ERα (Homo sapiens, UniProt P03372); assay: ER binding affinity by competitive E2 displacement (ERα)
T1 sequence (P03372 1-595): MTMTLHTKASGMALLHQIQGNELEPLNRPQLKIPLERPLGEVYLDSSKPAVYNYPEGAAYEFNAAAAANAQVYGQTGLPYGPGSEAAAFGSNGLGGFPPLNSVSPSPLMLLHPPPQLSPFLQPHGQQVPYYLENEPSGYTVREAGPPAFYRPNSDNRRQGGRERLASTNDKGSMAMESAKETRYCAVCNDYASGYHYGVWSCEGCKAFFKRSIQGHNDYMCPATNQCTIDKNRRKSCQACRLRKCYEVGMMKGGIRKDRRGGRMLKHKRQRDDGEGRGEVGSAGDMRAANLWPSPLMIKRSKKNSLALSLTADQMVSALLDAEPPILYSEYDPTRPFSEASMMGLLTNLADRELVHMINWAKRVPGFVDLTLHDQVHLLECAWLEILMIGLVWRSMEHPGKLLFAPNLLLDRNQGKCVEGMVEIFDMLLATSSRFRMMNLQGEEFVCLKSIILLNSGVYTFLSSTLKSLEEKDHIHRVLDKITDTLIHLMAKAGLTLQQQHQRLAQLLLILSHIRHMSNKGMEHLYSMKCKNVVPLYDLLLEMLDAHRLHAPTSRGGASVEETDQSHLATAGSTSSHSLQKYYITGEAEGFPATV
Experimental: ER binding affinity was measured by competitive E2 displacement as previously described.

Row | Compound | bioavailability in plasma and CNS ([1]; in vivo) | blood brain barrier permeability [1] | IC50 [2] [nM] | reversal of scopolamine-induced memory deficit (STPA latency) ([3]; C57Bl/6 male mice) | reversal of scopolamine-induced memory deficit in eNOS KO mice (STPA) [3] | elevation of NOx in hippocampus [4] | elevation of NOx in plasma [4] | IC50 (ERα) [nM] | reversal of L-NAME-induced cognitive deficit (STPA latency) ([3]; C57Bl/6 male mice, L-NAME 50 mg/kg i.p.) | NOx in hippocampus, eNOS(−/−) ([4]; eNOS(−/−) mice) | NOx in plasma, eNOS(−/−) ([4]; eNOS(−/−) mice)
1 | Oc1ccc(-c2sc3cc(O)ccc3c2Oc2ccc(OCCN3CCCCC3)cc2)cc1 [DMA, desmethylarzoxifene] | substantial bioavailability with preferential retention in the hippocampus up to 2 h after administration | substantial blood brain barrier permeability | 0.1 ± 0.1 | complete reversal of the memory deficit | not influenced by treatment with DMA | greater than twofold elevation | greater than twofold elevation | – | – | – | –
2 | O=[N+]([O-])OCCCC1CCN(CCOc2ccc(Oc3c(-c4ccc(O)cc4)sc4cc(O)ccc34)cc2)CC1 [NO-DMA, 3-(1-(2-(4-(6-hydroxy-2-(4-ydroxyphenyl)benzo[b]thiophen-3-yloxy)phenoxy)ethyl)piperidin-4-yl)propyl nitrate] | – | – | 3.9 ± 1.3 | complete reversal of the memory deficit | significantly improved memory | greater than twofold elevation | greater than twofold elevation | 21.4 ± 6.7 | reversed by NO-DMA | increase NOx significantly, relative to DMA | increase NOx significantly, relative to DMA
